Reference: ChEMBL document CHEMBL5550117, “Dual-target inhibitors based on ERα: Novel therapeutic approaches for endocrine resistant breast cancer” (Eur J Med Chem, 2024)

Tests used:
[1] = molecular target: T1, Protein deacetylase HDAC6 (Homo sapiens, UniProt Q9UBN7); assay: Inhibition of HDAC6 (unknown origin)
T1 sequence (Q9UBN7 whole entry): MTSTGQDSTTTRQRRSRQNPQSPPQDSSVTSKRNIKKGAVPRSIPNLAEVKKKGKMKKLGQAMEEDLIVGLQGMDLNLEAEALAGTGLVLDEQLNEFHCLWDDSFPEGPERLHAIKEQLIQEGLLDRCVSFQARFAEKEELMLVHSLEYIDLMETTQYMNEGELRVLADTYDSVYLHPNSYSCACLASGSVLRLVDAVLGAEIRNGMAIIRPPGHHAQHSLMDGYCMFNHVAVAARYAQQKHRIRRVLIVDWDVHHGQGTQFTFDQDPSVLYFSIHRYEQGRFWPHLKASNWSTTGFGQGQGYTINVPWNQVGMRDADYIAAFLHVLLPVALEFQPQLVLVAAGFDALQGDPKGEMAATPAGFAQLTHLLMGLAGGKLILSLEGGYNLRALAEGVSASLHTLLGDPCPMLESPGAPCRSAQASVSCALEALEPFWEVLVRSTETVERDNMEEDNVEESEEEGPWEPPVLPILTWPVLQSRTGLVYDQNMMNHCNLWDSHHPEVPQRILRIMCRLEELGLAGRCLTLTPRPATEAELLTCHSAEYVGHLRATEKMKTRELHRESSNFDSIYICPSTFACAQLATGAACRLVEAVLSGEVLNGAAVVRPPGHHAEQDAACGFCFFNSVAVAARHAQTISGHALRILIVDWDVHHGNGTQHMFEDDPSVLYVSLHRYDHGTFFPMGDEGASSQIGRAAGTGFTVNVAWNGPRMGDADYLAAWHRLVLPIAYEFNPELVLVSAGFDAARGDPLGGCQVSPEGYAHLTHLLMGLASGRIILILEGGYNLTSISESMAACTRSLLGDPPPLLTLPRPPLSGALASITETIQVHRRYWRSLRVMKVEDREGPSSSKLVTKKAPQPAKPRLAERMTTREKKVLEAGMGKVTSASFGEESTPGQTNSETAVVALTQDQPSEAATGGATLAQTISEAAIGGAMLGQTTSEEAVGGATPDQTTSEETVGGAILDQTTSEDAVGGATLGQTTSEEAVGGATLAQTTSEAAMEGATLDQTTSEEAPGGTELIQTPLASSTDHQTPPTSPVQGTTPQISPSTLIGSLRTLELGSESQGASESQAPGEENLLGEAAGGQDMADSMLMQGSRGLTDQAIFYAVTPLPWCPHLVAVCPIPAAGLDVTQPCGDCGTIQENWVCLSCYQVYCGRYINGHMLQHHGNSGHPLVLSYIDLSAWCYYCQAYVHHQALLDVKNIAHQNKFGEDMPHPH

MCF7 [2] = assay: Antiproliferative activity against human MCF7 cells assessed as reduction in cell viability incubated for 48 hrs by MTT assay; conditions: MCF7, 48 h
[3] = Inhibition of NF-kappaB pathway in human MCF7 cells assessed as reduction in TNFalpha level by RT-PCR analysis
MCF7 [4] = assay: Anti-clonogenic activity in human MCF7 cells assessed as reduction of colony formation incubated for 2 weeks by crystal violet staining based assay; conditions: MCF7, 336 h

| IC50 [1] | IC50 (MCF7 [2]) | IC50 [3] | IC50 (MCF7 [4]) | SMILES |
| --- | --- | --- | --- | --- |
| 2200 nM |  |  |  | CC/C(=C(\c1ccccc1)c1ccc(OCCN(C)Cc2ccc(NC(=O)CCCCCCC(=O)NO)cc2)cc1)c1ccccc1 |
|  | 500 nM | 4000 nM | 2000 nM | CCOC(=O)/C=C/C(=O)NCCOc1ccc(C(=O)c2c(-c3ccc(O)cc3)sc3cc(O)ccc23)cc1 |
